Test results: US20250243171A1, “QUINAZOLINE COMPOUNDS FOR TREATMENT OF DISEASE” (Arthrosi Therapeutics, Inc., priority 2021, published 2025)

Assays:
Assay in all cases: EC50 assay: Ba/F3 stable cell proliferation (CCK-8, 72 h)
Assay type in all cases: cell-based
Ba/F3 stable cells [1] = target: T1, Ba/F3 stable cells (Homo sapiens, UniProt P00533, INS763FQEA, cells depend on it); details: Ba/F3-EGFR A763-Y764insFQEA cells
T1 construct: EC50 Ba/F3-EGFR A763-Y764insFQEA; other: Ba/F3-EGFR A763-Y764insFQEA cells, 72 h, CCK-8
T1 sequence (P00533 with tags, fused parts or gaps INS763FQEA): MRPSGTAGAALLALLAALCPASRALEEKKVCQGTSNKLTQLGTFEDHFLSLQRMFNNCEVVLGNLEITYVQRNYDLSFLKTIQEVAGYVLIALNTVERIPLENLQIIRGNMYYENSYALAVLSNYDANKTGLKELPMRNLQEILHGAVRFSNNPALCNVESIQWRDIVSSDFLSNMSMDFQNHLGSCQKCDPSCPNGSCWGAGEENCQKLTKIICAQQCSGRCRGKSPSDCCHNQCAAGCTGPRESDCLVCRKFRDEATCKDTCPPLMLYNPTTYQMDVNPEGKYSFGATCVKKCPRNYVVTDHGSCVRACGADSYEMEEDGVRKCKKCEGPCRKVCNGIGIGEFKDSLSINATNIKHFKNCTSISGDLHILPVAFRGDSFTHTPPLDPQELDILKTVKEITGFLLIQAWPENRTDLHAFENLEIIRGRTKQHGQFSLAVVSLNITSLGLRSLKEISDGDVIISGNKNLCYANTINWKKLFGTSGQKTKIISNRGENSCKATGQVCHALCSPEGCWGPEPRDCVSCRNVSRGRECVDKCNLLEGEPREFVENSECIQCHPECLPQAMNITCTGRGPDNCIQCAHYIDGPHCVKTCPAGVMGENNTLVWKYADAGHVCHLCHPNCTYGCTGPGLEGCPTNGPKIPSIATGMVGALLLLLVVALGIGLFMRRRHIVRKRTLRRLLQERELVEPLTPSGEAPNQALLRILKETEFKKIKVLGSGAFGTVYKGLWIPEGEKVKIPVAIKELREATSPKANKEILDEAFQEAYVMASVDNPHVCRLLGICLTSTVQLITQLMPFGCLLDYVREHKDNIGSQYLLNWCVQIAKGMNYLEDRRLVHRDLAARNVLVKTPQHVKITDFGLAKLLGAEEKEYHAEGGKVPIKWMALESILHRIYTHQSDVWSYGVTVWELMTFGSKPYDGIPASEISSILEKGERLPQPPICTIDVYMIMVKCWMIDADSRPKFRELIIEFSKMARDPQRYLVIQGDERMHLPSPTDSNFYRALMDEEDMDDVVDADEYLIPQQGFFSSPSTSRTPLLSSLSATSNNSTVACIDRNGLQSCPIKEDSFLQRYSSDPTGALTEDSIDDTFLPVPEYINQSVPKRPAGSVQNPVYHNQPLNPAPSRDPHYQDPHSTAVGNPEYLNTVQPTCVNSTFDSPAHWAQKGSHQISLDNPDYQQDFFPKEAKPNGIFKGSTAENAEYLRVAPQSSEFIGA
Experimental: (§1) 4,000 Ba/F3 stable cells/90 μL/well were plated onto 96-well cell culture plate (Grenier, Cat.No. 655180) and incubated at 37° C. with a humidified atmosphere of 5% CO2 for 2 h. Then the cells were treated with 10 μL compounds at serial titration. The final DMSO concentration is 0.1%. The cells treated with 0.1% DMSO (Vetec, Cat.No.V900090) as a positive control (Max), and medium with 0.1% DMSO was as a negative control (Min). Incubated the cells at 37° C. for 72 h. 10 μL the cell proliferation reagent CCK-8 (Dojindo, Cat.No. CK04 1000T) was added into each well and incubated the plate at 37° C. for 4 hours, the GD value was measured by SPECTRAmax plus (Molecular Devices) at 450 nm. Data processing with Graphpad 7.0.

Ba/F3 stable cells [2] = target: T2, Ba/F3 stable cells (Homo sapiens, UniProt P00533, DUP771-773, cells depend on it); details: Ba/F3-EGFR H773-V774insNPH cells
T2 construct: EC50 Ba/F3-EGFR H773-V774insNPH; other: Ba/F3-EGFR H773-V774insNPH cells, 72 h, CCK-8
T2 sequence (P00533 with tags, fused parts or gaps DUP771-773): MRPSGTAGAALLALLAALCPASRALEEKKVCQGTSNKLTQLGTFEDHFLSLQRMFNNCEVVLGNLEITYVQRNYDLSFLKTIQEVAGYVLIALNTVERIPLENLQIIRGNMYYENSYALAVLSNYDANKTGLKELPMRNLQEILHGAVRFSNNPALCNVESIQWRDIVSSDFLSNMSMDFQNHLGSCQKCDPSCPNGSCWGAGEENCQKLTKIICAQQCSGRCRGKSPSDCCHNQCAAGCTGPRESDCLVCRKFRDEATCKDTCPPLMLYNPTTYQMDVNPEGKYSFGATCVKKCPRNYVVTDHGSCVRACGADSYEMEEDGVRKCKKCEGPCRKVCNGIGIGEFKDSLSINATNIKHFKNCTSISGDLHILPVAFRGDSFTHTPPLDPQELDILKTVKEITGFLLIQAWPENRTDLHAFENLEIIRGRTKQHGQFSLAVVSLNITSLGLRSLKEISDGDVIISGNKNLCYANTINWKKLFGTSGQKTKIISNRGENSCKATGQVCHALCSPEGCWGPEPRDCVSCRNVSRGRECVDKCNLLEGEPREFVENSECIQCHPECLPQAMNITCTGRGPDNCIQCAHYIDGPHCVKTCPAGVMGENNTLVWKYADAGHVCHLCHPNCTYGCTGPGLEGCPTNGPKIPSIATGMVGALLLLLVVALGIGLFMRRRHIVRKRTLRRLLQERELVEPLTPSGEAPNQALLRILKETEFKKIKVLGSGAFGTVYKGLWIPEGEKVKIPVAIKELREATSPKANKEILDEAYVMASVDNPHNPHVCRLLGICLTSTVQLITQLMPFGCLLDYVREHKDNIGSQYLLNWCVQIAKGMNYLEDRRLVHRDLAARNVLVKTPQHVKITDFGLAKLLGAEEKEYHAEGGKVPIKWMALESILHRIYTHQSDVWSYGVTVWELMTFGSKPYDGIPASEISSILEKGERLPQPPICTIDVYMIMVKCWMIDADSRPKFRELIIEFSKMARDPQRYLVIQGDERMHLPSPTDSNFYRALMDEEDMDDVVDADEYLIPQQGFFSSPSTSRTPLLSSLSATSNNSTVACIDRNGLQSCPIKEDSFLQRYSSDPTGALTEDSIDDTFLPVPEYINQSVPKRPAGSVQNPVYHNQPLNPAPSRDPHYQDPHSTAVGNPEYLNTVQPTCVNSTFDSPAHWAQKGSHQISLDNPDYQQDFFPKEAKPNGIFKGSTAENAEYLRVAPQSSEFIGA
Experimental: as §1

Ba/F3 stable cells [3] = target: T3, Ba/F3 stable cells (Homo sapiens, UniProt P00533, T790M/L858R, cells depend on it); details: Ba/F3-EGFR L858R-T790M cells
T3 construct: EC50 Ba/F3-EGFR L858R-T790M; other: Ba/F3-EGFR L858R-T790M cells, 72 h, CCK-8
Experimental: as §1

Ba/F3 stable cells [4] = target: T4, Ba/F3 stable cells (Homo sapiens, UniProt P04626, DUP772-775, cells depend on it); details: Ba/F3-HER2 A775-G776insYVMA cells
T4 construct: EC50 Ba/F3-HER2 A775-G776insYVMA; other: Ba/F3-HER2 A775-G776insYVMA cells, 72 h, CCK-8
Experimental: as §1

Ba/F3 stable cells [5] = target: T5, Ba/F3 stable cells (Homo sapiens, UniProt P00533, DUP768-770, cells depend on it); details: Ba/F3-EGFR D770-N771insSVD cells
T5 construct: EC50 Ba/F3-EGFR D770-N771insSVD; other: Ba/F3-EGFR D770-N771insSVD cells, 72 h, CCK-8
T5 sequence (P00533 with tags, fused parts or gaps DUP768-770): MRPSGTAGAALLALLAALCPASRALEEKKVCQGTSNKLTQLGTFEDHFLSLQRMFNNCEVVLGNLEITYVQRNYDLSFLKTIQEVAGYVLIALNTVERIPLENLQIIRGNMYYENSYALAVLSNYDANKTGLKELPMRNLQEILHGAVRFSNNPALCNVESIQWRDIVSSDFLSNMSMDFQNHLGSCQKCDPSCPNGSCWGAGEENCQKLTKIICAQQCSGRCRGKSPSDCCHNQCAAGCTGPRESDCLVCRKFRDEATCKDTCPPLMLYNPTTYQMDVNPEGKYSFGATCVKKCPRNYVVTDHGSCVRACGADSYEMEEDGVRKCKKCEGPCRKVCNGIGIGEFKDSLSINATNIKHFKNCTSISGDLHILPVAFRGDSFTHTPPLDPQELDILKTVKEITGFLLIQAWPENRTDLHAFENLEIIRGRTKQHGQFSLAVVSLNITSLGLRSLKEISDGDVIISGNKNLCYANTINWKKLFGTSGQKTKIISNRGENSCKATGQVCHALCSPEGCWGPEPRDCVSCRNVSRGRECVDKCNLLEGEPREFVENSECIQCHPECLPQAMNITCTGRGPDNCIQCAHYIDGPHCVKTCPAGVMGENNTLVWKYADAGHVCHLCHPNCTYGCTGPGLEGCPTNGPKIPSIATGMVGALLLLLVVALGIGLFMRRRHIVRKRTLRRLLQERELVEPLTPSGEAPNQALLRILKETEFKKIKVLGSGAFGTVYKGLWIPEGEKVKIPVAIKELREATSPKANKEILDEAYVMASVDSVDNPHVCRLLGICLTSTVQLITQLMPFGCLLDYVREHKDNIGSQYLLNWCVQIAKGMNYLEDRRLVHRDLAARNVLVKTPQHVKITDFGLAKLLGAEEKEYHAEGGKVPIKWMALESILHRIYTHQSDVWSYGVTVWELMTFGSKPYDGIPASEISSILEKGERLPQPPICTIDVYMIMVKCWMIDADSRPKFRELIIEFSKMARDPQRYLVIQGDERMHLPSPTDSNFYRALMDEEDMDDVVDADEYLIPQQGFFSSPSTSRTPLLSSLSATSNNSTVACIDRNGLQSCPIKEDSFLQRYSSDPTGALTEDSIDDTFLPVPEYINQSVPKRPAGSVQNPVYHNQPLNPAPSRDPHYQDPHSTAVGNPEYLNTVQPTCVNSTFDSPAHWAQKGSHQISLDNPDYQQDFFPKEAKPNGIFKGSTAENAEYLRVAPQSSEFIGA
Experimental: as §1

Ba/F3 stable cells [6] = target: T6, Ba/F3 stable cells (Homo sapiens, UniProt P00533, DUP767-769, cells depend on it); details: Ba/F3-EGFR V769-D770insASV cells
T6 construct: EC50 Ba/F3-EGFR V769-D770insASV; other: Ba/F3-EGFR V769-D770insASV cells, 72 h, CCK-8
T6 sequence (P00533 with tags, fused parts or gaps DUP767-769): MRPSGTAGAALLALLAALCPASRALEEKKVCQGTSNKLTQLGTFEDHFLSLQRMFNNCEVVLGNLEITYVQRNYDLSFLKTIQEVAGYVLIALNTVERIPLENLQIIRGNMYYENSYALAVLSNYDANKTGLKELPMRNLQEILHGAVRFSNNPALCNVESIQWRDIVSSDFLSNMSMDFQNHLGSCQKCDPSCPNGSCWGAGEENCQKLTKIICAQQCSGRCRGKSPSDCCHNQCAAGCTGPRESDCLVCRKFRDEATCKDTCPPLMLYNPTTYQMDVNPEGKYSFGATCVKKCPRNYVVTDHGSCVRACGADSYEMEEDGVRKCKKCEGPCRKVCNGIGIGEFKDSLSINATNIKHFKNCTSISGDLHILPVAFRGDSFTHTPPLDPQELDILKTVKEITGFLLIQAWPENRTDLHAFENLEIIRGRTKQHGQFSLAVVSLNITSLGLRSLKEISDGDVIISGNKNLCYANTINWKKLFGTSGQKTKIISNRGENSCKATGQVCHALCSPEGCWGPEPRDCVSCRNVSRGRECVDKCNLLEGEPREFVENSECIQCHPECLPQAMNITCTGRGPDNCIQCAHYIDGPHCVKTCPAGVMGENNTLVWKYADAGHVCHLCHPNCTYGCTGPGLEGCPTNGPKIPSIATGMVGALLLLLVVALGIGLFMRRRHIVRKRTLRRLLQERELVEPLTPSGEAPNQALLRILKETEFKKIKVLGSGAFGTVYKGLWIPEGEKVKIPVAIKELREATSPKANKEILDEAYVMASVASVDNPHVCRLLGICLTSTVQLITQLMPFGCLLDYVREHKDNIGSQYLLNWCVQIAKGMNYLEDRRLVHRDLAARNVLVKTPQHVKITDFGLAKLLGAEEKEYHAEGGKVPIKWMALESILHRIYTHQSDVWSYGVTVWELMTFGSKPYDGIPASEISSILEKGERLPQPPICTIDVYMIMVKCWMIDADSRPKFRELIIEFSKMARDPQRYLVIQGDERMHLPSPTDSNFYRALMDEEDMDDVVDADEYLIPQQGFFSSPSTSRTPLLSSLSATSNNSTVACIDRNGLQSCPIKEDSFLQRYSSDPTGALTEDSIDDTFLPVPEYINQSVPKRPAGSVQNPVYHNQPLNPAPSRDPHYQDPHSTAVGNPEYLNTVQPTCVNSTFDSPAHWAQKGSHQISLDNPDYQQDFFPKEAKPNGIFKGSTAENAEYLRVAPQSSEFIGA
Experimental: as §1

SMILES	EC50 (Ba/F3 stable cells [1]) [nM]	EC50 (Ba/F3 stable cells [2]) [nM]	EC50 (Ba/F3 stable cells [3]) [nM]	EC50 (Ba/F3 stable cells [4]) [nM]	EC50 (Ba/F3 stable cells [5]) [nM]	EC50 (Ba/F3 stable cells [6]) [nM]
C=CC(=O)N1CC(c2cc3c(Nc4ccc(Cl)c(Cl)c4F)ncnc3cc2OCCCN2CCOCC2)C1 [Compound 30, 1-(3-(4-((3,4-dichloro-2-fluorophenyl)amino)-7-(3-morpholinopropoxy)quinazolin-6-yl)azetidin-1-yl)prop-2-en-1-one]	≤ 200	≤ 200	≤ 200	≤ 200	≤ 200	≤ 200
C=CC(=O)N1CC(c2cc3c(Nc4ccc(Cl)c(Cl)c4F)ncnc3cc2OCCCN2CCN(C)CC2)C1 [Compound 31, 1-(3-(4-((3,4-dichloro-2-fluorophenyl)amino)-7-(3-(4-methylpiperazin-1-yl)propoxy)quinazolin-6-yl)azetidin-1-yl)prop-2-en-1-one]	≤ 200	≤ 200	≤ 200	200 to 1000	≤ 200	≤ 200
C=CC(=O)NCC1COc2cc3ncnc(Nc4ccc(Cl)c(Cl)c4F)c3cc21 (stereo not drawn) [Compound 34, N-((4-((3,4-dichloro-2-fluorophenyl)amino)-6,7-dihydrofuro[3,2-g]quinazolin-6-yl)methyl)acrylamide]	≤ 200	≤ 200	> 1000	≤ 200	200 to 1000	200 to 1000
C=C(F)C(=O)N1CC(c2cc3c(Nc4ccc(Cl)c(Cl)c4F)ncnc3cc2O[C@H]2CCOC2)C1 [Compound 37, (S)-1-(3-(4-((3,4-dichloro-2-fluorophenyl)amino)-7-((tetrahydrofuran-3-yl)oxy)quinazolin-6-yl)azetidin-1-yl)-2-fluoroprop-2-en-1-one]	≤ 200	200 to 1000	200 to 1000	200 to 1000	200 to 1000	≤ 200
C=C(F)C(=O)N1CC(c2cc3c(Nc4ccc(Cl)c(Cl)c4F)ncnc3cc2OC)C1 [Compound 38, 1-(3-(4-((3,4-dichloro-2-fluorophenyl)amino)-7-methoxyquinazolin-6-yl)azetidin-1-yl)-2-fluoroprop-2-en-1-one]	≤ 200	200 to 1000	> 1000	> 1000	> 1000	200 to 1000
[2H]C([2H])([2H])Oc1cc2ncnc(Nc3ccc(Cl)c(Cl)c3F)c2cc1C1CN(C(=O)C(=C)F)C1 [Compound 39, 1-(3-(4-((3,4-dichloro-2-fluorophenyl)amino)-7-(methoxy-d3)quinazolin-6-yl)azetidin-1-yl)-2-fluoroprop-2-en-1-one]	≤ 200	> 1000	> 1000	> 1000	> 1000	200 to 1000
C=C(F)C(=O)N[C@H]1C[C@@H](Oc2cc3c(Nc4ccc(Cl)c(Cl)c4F)ncnc3cc2OC)C1 [Compound 40, N-((1s,3s)-3-((4-((3,4-dichloro-2-fluorophenyl)amino)-7-methoxyquinazolin-6-yl)oxy)cyclobutyl)-2-fluoroacrylamide]	≤ 200	200 to 1000	200 to 1000	200 to 1000	200 to 1000	≤ 200
C#CC(=O)N1CC(c2cc3c(Nc4ccc(OCc5ccccc5)c(Cl)c4F)ncnc3cc2OC)C1 [Compound 41, 1-(3-(4-((4-(benzyloxy)-3-chloro-2-fluorophenyl)amino)-7-methoxyquinazolin-6-yl)azetidin-1-yl)prop-2-yn-1-one]	200 to 1000	> 1000	> 1000	> 1000	> 1000	> 1000
COc1cc2ncnc(Nc3ccc(Cl)c(Cl)c3F)c2cc1OC1CC(NC(=O)/C=C/CN(C)C)C1 (stereo not drawn) [Compound 42, (E)-N-(3-((4-((3,4-dichloro-2-fluorophenyl)amino)-7-methoxyquinazolin-6-yl)oxy)cyclobutyl)-4-(dimethylamino)but-2-enamide]	≤ 200	200 to 1000	> 1000	200 to 1000	200 to 1000	≤ 200
CC#CC(=O)NC1CC(Oc2cc3c(Nc4ccc(Cl)c(Cl)c4F)ncnc3cc2OC)C1 (stereo not drawn) [Compound 43, N-(3-((4-((3,4-dichloro-2-fluorophenyl)amino)-7-methoxyquinazolin-6-yl)oxy)cyclobutyl)but-2-ynamide]	≤ 200	> 1000	> 1000	200 to 1000	200 to 1000	200 to 1000
C#CC(=O)N[C@H]1C[C@H](Oc2cc3c(Nc4cccc5c4CCC5)ncnc3cc2OC)C1 [Compound 44, N-((1r,3r)-3-((4-((2,3-dihydro-1H-inden-4-yl)amino)-7-methoxyquinazolin-6-yl)oxy)cyclobutyl)propiolamide]	≤ 200	≤ 200	200 to 1000	200 to 1000	200 to 1000	≤ 200
C#CC(=O)NC1CC(Oc2cc3c(Nc4cccc5ccccc45)ncnc3cc2OC)C1 (stereo not drawn) [Compound 46, N-(3-((7-methoxy-4-(naphthalen-1-ylamino)quinazolin-6-yl)oxy)cyclobutyl)propiolamide]	≤ 200	≤ 200	≤ 200	≤ 200	200 to 1000	≤ 200
C#CC(=O)NC1CC(Oc2cc3c(Nc4ccc(Cl)c(Cl)c4F)ncnc3cc2OC)C1 (stereo not drawn) [Compound 49, N-(3-((4-((3,4-dichloro-2-fluorophenyl)amino)-7-methoxyquinazolin-6-yl)oxy)cyclobutyl)propiolamide]	≤ 200	≤ 200	≤ 200	200 to 1000	≤ 200	≤ 200

Other lines, results leading:

EC50 (Ba/F3 stable cells [1]) [nM]	EC50 (Ba/F3 stable cells [2]) [nM]	EC50 (Ba/F3 stable cells [3]) [nM]	EC50 (Ba/F3 stable cells [4]) [nM]	EC50 (Ba/F3 stable cells [5]) [nM]	EC50 (Ba/F3 stable cells [6]) [nM]	SMILES
≤ 200	≤ 200	≤ 200	≤ 200	≤ 200	≤ 200	[2H]C([2H])([2H])Oc1cc2ncnc(Nc3ccc(Cl)c(Cl)c3F)c2cc1C1CN(C(=O)C=C)C1 [Compound 32, 1-(3-(4-((3,4-dichloro-2-fluorophenyl)amino)-7-(methoxy-d3)quinazolin-6-yl)azetidin-1-yl)prop-2-en-1-one]
≤ 200	≤ 200	≤ 200	≤ 200	≤ 200	≤ 200	C=CC(=O)N1CC(c2cc3c(Nc4ccc(F)c(Cl)c4F)ncnc3cc2O[C@H]2CCOC2)C1 [Compound 33, (S)-1-(3-(4-((3-chloro-2,4-difluorophenyl)amino)-7-((tetrahydrofuran-3-yl)oxy)quinazolin-6-yl)azetidin-1-yl)prop-2-en-1-one]
> 1000	> 1000	> 1000	> 1000	> 1000	> 1000	[2H]C([2H])([2H])n1cn/c(=N\c2ccc(Cl)c(Cl)c2F)c2cc3c(cc21)OCC3CNC(=O)C=C (stereo not drawn) [Compound 35, (Z)—N-((4-((3,4-dichloro-2-fluorophenyl)imino)-1-trideuteriomethyl-1,4,6,7-tetrahydrofuro[3,2-g]quinazolin-6-yl)methyl)acrylamide]
≤ 200	> 1000	> 1000	> 1000	> 1000	> 1000	C#CC(=O)N[C@H]1C[C@@H](Oc2cc3c(Nc4cccc5c4CCC5)ncnc3cc2OC)C1 [Compound 45, N-((1s,3s)-3-((4-((2,3-dihydro-1H-inden-4-yl)amino)-7-methoxyquinazolin-6-yl)oxy)cyclobutyl)propiolamide]
≤ 200	≤ 200	≤ 200	200 to 1000	≤ 200	≤ 200	C#CC(=O)N[C@H]1C[C@@H](Oc2cc3c(Nc4cccc5ccccc45)ncnc3cc2OC)C1 [Compound 47, N-((1s,3s)-3-((7-methoxy-4-(naphthalen-1-ylamino)quinazolin-6-yl)oxy)cyclobutyl)propiolamide]
≤ 200	200 to 1000	≤ 200	200 to 1000	200 to 1000	≤ 200	C#CC(=O)N[C@H]1C[C@H](Oc2cc3c(Nc4ccc5ccccc5c4)ncnc3cc2OC)C1 [Compound 48, N-((1r,3r)-3-((7-methoxy-4-(naphthalen-2-ylamino)quinazolin-6-yl)oxy)cyclobutyl)propiolamide]
